In PubChem BioAssay (NCI):
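Each compound was tested at five concentrations against cells in 96-well plates for 48 hours. TGI: concentration producing complete growth inhibition.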

Key:
Experiment in all cases: NCI tumour cell line growth inhibition, 48 h
786-0 renal = test system: 786-0 renal
A498 renal = test system: A498 renal
A549 NSCLC = test system: A549 NSCLC
ACHN renal = test system: ACHN renal
BT-549 breast = test system: BT-549 breast
CAKI-1 renal = test system: CAKI-1 renal
CCRF-CEM leukemia = test system: CCRF-CEM leukemia
COLO 205 colon = test system: COLO 205 colon
DU-145 prostate = test system: DU-145 prostate
EKVX NSCLC = test system: EKVX NSCLC
HCC-2998 colon = test system: HCC-2998 colon
HCT-116 colon = test system: HCT-116 colon
HCT-15 colon = test system: HCT-15 colon
HL-60(TB) leukemia = test system: HL-60(TB) leukemia
HOP-62 NSCLC = test system: HOP-62 NSCLC
HS 578T breast = test system: HS 578T breast
HT29 colon = test system: HT29 colon
IGROV1 ovarian = test system: IGROV1 ovarian
K-562 leukemia = test system: K-562 leukemia
KM12 colon = test system: KM12 colon
LOX IMVI melanoma = test system: LOX IMVI melanoma
M14 melanoma = test system: M14 melanoma
MALME-3M melanoma = test system: MALME-3M melanoma
MCF7 breast = test system: MCF7 breast
MDA-MB-231 breast = test system: MDA-MB-231 breast
MDA-MB-435 = test system: MDA-MB-435
MDA-N = test system: MDA-N
MOLT-4 leukemia = test system: MOLT-4 leukemia
NCI-H23 lung = test system: NCI-H23 lung
NCI-H460 lung = test system: NCI-H460 lung
NCI-H522 lung = test system: NCI-H522 lung
NCI/ADR-RES ovarian = test system: NCI/ADR-RES ovarian
OVCAR-3 ovarian = test system: OVCAR-3 ovarian
OVCAR-4 ovarian = test system: OVCAR-4 ovarian
OVCAR-5 ovarian = test system: OVCAR-5 ovarian
OVCAR-8 ovarian = test system: OVCAR-8 ovarian
PC-3 prostate = test system: PC-3 prostate
RPMI-8226 leukemia = test system: RPMI-8226 leukemia
RXF 393 renal = test system: RXF 393 renal
SF-268 CNS = test system: SF-268 CNS
SF-295 CNS = test system: SF-295 CNS
SF-539 CNS = test system: SF-539 CNS
SK-MEL-2 melanoma = test system: SK-MEL-2 melanoma
SK-MEL-28 melanoma = test system: SK-MEL-28 melanoma
SK-MEL-5 melanoma = test system: SK-MEL-5 melanoma
SK-OV-3 ovarian = test system: SK-OV-3 ovarian
SN12C renal = test system: SN12C renal
SNB-19 CNS = test system: SNB-19 CNS
SNB-75 CNS = test system: SNB-75 CNS
SW-620 colon = test system: SW-620 colon
T-47D breast = test system: T-47D breast
TK-10 renal = test system: TK-10 renal
U251 CNS = test system: U251 CNS
UACC-257 melanoma = test system: UACC-257 melanoma
UACC-62 melanoma = test system: UACC-62 melanoma
UO-31 renal = test system: UO-31 renal
HOP-92 NSCLC = test system: HOP-92 NSCLC
NCI-H226 lung = test system: NCI-H226 lung
SR leukemia = test system: SR leukemia

S=C(S)NCC1CCC(CNC(=S)S)CC1 (configuration not stated)
TGI (786-0 renal): 18.6 µM | TGI (A498 renal): > 100 µM | TGI (A549 NSCLC): > 100 µM | TGI (ACHN renal): 39.2 µM | TGI (BT-549 breast): > 100 µM | TGI (CAKI-1 renal): 30.6 µM | TGI (CCRF-CEM leukemia): > 100 µM | TGI (COLO 205 colon): > 100 µM | TGI (DU-145 prostate): 63.4 µM | TGI (EKVX NSCLC): > 100 µM | TGI (HCC-2998 colon): 48.3 µM | TGI (HCT-116 colon): 42.5 µM | TGI (HCT-15 colon): 65 µM | TGI (HL-60(TB) leukemia): > 100 µM | TGI (HOP-62 NSCLC): 42.9 µM | TGI (HS 578T breast): > 100 µM | TGI (HT29 colon): 42.3 µM | TGI (IGROV1 ovarian): 33.9 µM | TGI (K-562 leukemia): > 100 µM | TGI (KM12 colon): 42.5 µM | TGI (LOX IMVI melanoma): 40.8 µM | TGI (M14 melanoma): > 100 µM | TGI (MALME-3M melanoma): 63.1 µM | TGI (MCF7 breast): 81.3 µM | TGI (MDA-MB-231 breast): 70.1 µM | TGI (MDA-MB-435): 61.4 µM | TGI (MDA-N): 81.4 µM | TGI (MOLT-4 leukemia): 65.2 µM | TGI (NCI-H23 lung): > 100 µM | TGI (NCI-H460 lung): > 100 µM | TGI (NCI-H522 lung): 28 µM | TGI (NCI/ADR-RES ovarian): > 100 µM | TGI (OVCAR-3 ovarian): 30.3 µM | TGI (OVCAR-4 ovarian): > 100 µM | TGI (OVCAR-5 ovarian): > 100 µM | TGI (OVCAR-8 ovarian): 47.9 µM | TGI (PC-3 prostate): 37.5 µM | TGI (RPMI-8226 leukemia): > 100 µM | TGI (RXF 393 renal): 40.6 µM | TGI (SF-268 CNS): > 100 µM | TGI (SF-295 CNS): > 100 µM | TGI (SF-539 CNS): > 100 µM | TGI (SK-MEL-2 melanoma): 58.3 µM | TGI (SK-MEL-28 melanoma): > 100 µM | TGI (SK-MEL-5 melanoma): > 100 µM | TGI (SK-OV-3 ovarian): > 100 µM | TGI (SN12C renal): 44 µM | TGI (SNB-19 CNS): > 100 µM | TGI (SNB-75 CNS): > 100 µM | TGI (SW-620 colon): > 100 µM | TGI (T-47D breast): 38.9 µM | TGI (TK-10 renal): 51.7 µM | TGI (U251 CNS): 43 µM | TGI (UACC-257 melanoma): 87.1 µM | TGI (UACC-62 melanoma): > 100 µM | TGI (UO-31 renal): 47.5 µM

COc1cc(C2S/C(=C/c3ccccc3)C(=O)N2c2ccc(Cl)c(Cl)c2)cc(OC)c1OC (configuration not stated)
TGI (786-0 renal): > 100 µM | TGI (A498 renal): > 82.4 µM | TGI (A549 NSCLC): > 100 µM | TGI (ACHN renal): > 100 µM | TGI (BT-549 breast): > 100 µM | TGI (CAKI-1 renal): > 100 µM | TGI (CCRF-CEM leukemia): > 100 µM | TGI (COLO 205 colon): > 100 µM | TGI (DU-145 prostate): > 100 µM | TGI (EKVX NSCLC): > 100 µM | TGI (HCC-2998 colon): > 100 µM | TGI (HCT-116 colon): > 78.9 µM | TGI (HCT-15 colon): > 100 µM | TGI (HL-60(TB) leukemia): > 100 µM | TGI (HOP-62 NSCLC): > 100 µM | TGI (HOP-92 NSCLC): > 84.2 µM | TGI (HS 578T breast): > 91.5 µM | TGI (HT29 colon): > 100 µM | TGI (IGROV1 ovarian): > 100 µM | TGI (K-562 leukemia): > 100 µM | TGI (KM12 colon): > 70.3 µM | TGI (LOX IMVI melanoma): > 100 µM | TGI (M14 melanoma): > 100 µM | TGI (MALME-3M melanoma): > 100 µM | TGI (MCF7 breast): > 87.7 µM | TGI (MDA-MB-231 breast): > 100 µM | TGI (MDA-MB-435): > 90.4 µM | TGI (MDA-N): > 84.9 µM | TGI (MOLT-4 leukemia): > 100 µM | TGI (NCI-H226 lung): > 100 µM | TGI (NCI-H23 lung): > 100 µM | TGI (NCI-H460 lung): > 100 µM | TGI (NCI-H522 lung): 51.4 µM | TGI (NCI/ADR-RES ovarian): > 100 µM | TGI (OVCAR-3 ovarian): > 100 µM | TGI (OVCAR-4 ovarian): > 100 µM | TGI (OVCAR-5 ovarian): > 100 µM | TGI (OVCAR-8 ovarian): > 100 µM | TGI (PC-3 prostate): > 100 µM | TGI (RPMI-8226 leukemia): > 100 µM | TGI (RXF 393 renal): > 100 µM | TGI (SF-268 CNS): > 100 µM | TGI (SF-295 CNS): > 100 µM | TGI (SK-MEL-2 melanoma): > 59.6 µM | TGI (SK-MEL-28 melanoma): > 100 µM | TGI (SK-MEL-5 melanoma): > 100 µM | TGI (SK-OV-3 ovarian): > 100 µM | TGI (SN12C renal): > 100 µM | TGI (SNB-19 CNS): > 100 µM | TGI (SR leukemia): > 100 µM | TGI (SW-620 colon): > 100 µM | TGI (T-47D breast): > 100 µM | TGI (TK-10 renal): > 100 µM | TGI (U251 CNS): > 100 µM | TGI (UACC-257 melanoma): > 100 µM | TGI (UO-31 renal): > 100 µM
